Assay results published in patent publication US9120744B2, “Plasminogen activator inhibitor-1 inhibitors and methods of use thereof to modulate lipid metabolism” (THE REGENTS OF THE UNIVERSITY OF MICHIGAN, priority 2007, dated 2015).
Counter-ions that a name gives are not always drawn. Like-named read-outs stand apart in the source and are kept apart here.

Target: recombinant active human PAI-1 (Homo sapiens (Human), UniProt P05121)
Assay: β-trypsin screening assay for PAI-1 inhibitors;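 also: fluorogenic readout with PAI-1 and β-trypsin at 10:1 molar ratio, untreated PAI-1 wells set as 100% PAI-1 activity and β-trypsin alone as 0%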
Format: biochemical
[1] = 10 μM compound, hit = more than 3 standard deviations above control

Chain of recombinant active human PAI-1 (P05121 24-402): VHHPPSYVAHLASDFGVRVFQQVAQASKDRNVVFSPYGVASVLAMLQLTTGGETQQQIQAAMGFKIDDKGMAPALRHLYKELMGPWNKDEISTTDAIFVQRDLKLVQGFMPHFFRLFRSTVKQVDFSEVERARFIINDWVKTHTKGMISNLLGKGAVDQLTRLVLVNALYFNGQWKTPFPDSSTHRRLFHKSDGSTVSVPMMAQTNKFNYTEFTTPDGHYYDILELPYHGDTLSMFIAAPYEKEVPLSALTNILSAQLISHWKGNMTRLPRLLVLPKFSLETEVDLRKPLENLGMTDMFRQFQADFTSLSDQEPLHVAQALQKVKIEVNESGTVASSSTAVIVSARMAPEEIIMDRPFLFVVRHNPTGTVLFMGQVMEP

Row | SMILES | screening hit: restoration of β-trypsin activity [1] | screening hit: restoration of β-trypsin activity
1 | COc1cc(OC)c2c(c1)O[C@H](c1ccc(OC)c(OC)c1)[C@@H](O)C2 | demonstrate PAI-1 inhibitor activity | –
2 | C=CC1=C(C(=O)O)N2C(=O)[C@@H](NC(=O)C(NC)c3csc(N)n3)[C@H]2SC1 (stereo partly shown) | demonstrate PAI-1 inhibitor activity | –
3 | O=c1cnn([C@H]2O[C@@H](CO)[C@H](O)[C@@H]2O)c(=O)[nH]1 (stereo in doubt) [6-AZAURIDINE] | demonstrate PAI-1 inhibitor activity | –
4 | CC(C)c1ccc2c(c1)c(SC(C)(C)C)c(CC(C)(C)C(=O)O)n2Cc1ccc(Cl)cc1 [1H-Indole-2-propanoic acid, 1-[(4-chlorophenyl)methyl]-3-[(1,1-dimethylethyl)thio]-Alpha,Alpha-dimethyl-5-(1-methylethyl)-] | demonstrate PAI-1 inhibitor activity | –
5 | CCOc1ccc(C(=O)c2ccc(O)c(O)c2O)cc1 [2,3,4-TRIHYDROXY-4′-ETHOXYBENZOPHENONE] | demonstrate PAI-1 inhibitor activity | –
6 | CCOC(=O)C1(O)Oc2cc(OC)cc(OC)c2C(=O)C1c1ccccc1 (stereo not shown) [2-ETHOXYCARBONYL-2-HYDROXY-5,7-DIMETHOXYISOFLAVANONE] | demonstrate PAI-1 inhibitor activity | –
7 | O=C(OC1Cc2c(O)cc(O)cc2O[C@@H]1c1cc(O)c(O)c(O)c1-c1c([C@@H]2Oc3cc(O)cc(O)c3C[C@@H]2OC(=O)c2cc(O)c(O)c(O)c2)cc(O)c(O)c1O)c1cc(O)c(O)c(O)c1 (stereo partly shown) [2′,2′-BISEPIGAL[…]] | demonstrate PAI-1 inhibitor activity | –
8 | c1ccc2c(Cc3c[nH]c4ccccc34)c[nH]c2c1 [3,3′-DIINDOLYLMETHANE] | demonstrate PAI-1 inhibitor activity | –
9 | O=c1c(-c2ccccc2)coc2cc(O)cc(O)c12 [5,7-DIHYDROXYISOFLAVONE] | demonstrate PAI-1 inhibitor activity | –
10 | CCCCCCCCCOc1ccc2[nH]cc(CCN)c2c1 [5-Nonyloxytryptamine] | demonstrate PAI-1 inhibitor activity | –
11 | O=C(O)c1cc(O)c(=O)c2c(O)c(O)ccc2c1 [7-DESHYDROXYPYROGALLIN-4-CARBOXYLIC ACID] | demonstrate PAI-1 inhibitor activity | –
12 | CC[C@@]1(O)C[C@H](O[C@H]2C[C@H](N(C)C)[C@H](O)[C@H](C)O2)c2c(cc3c(c2O)C(=O)c2c(O)cccc2C3=O)[C@H]1C(=O)OC [AKLAVINE HYDROCHLORIDE] | demonstrate PAI-1 inhibitor activity | –
13 | O=C(O)C1CC([C@@H]2CCCCN2)CN2CCCCC12 (stereo partly shown) [APHYLLIC ACID] | demonstrate PAI-1 inhibitor activity | –
14 | CN1CCCC(n2nc(Cc3ccc(Cl)cc3)c3ccccc3c2=O)CC1 (stereo not shown) [AZELASTINE HYDROCHLORIDE] | demonstrate PAI-1 inhibitor activity | –
15 | CC1(C)S[C@@H]2[C@H](NC(=O)[C@H](NC(=O)N3CCNC3=O)c3ccccc3)C(=O)N2[C@H]1C(=O)[O-].[Na+] [AZLOCILLIN SODIUM] | demonstrate PAI-1 inhibitor activity | –
16 | NC(CO)C(=O)NNCc1ccc(O)c(O)c1O (stereo not shown) [BENSERAZIDE HYDROCHLORIDE] | demonstrate PAI-1 inhibitor activity | –
17 | CC(C)C[C@H](NC(=O)[C@@H](O)[C@H](N)Cc1ccccc1)C(=O)O [BESTATIN] | demonstrate PAI-1 inhibitor activity | –
18 | c1ccc(-c2ccc(C(c3ccccc3)n3ccnc3)cc2)cc1 (stereo not shown) [BIFONAZOLE] | demonstrate PAI-1 inhibitor activity | –
19 | Oc1c(Cl)cc(Cl)cc1Sc1cc(Cl)cc(Cl)c1O [BITHIONOL] | demonstrate PAI-1 inhibitor activity | –
20 | Oc1ccc2c(c1)OC[C@]1(O)Cc3cc(O)c(O)cc3[C@H]21 [BRAZILIN] | demonstrate PAI-1 inhibitor activity | –

Row | SMILES | screening hit: restoration of β-trypsin activity [1] | screening hit: restoration of β-trypsin activity
21 | COc1ccc(CCN(C)CCC[C@](C#N)(c2ccc(OC)c(OC)c2)C(C)C)cc1OC [Benzeneacetonitrile, Alpha-[3-[[2-(3,4-dimethoxyphenyl)ethyl]methylamino]propyl]-3,4-dimethoxy-Alpha-(1-methylethyl)-, (R)-] | demonstrate PAI-1 inhibitor activity | –
22 | C=C1/C(=C\C=C2/CCC[C@@]3(C)[C@@H]2CC[C@H]3[C@H](C)/C=C/[C@@H](O)C2CC2)C[C@@H](O)C[C@H]1O [CALCIPOTRIOL] | demonstrate PAI-1 inhibitor activity | –
23 | CCOc1nc2cccc(C(=O)OC(C)OC(=O)OC3CCCCC3)c2n1Cc1ccc(-c2ccccc2-c2nn[nH]n2)cc1 (stereo not shown) [CANDESARTAN CILEXTIL] | demonstrate PAI-1 inhibitor activity | –
24 | C[C@]12CCC(=O)C=C1C=C[C@@H]1[C@@H]2CC[C@@]2(C)[C@H]1CC[C@@]21CCC(=O)O1 [CANRENONE] | demonstrate PAI-1 inhibitor activity | –
25 | C[N+](C)(C)CCOC(N)=O [CARBACHOL] | demonstrate PAI-1 inhibitor activity | –
26 | NCCC(=O)N[C@@H](Cc1c[nH]cn1)C(=O)O [CARNOSINE] | demonstrate PAI-1 inhibitor activity | –
27 | C=CC1=C(C(=O)O)N2C(=O)[C@@H](NC(=O)C(NOCC(=O)O)c3csc(N)n3)[C@H]2SC1 (stereo partly shown) [CEFIXIME TRIHYDRATE] | demonstrate PAI-1 inhibitor activity | –
28 | CC1=C(O)C(=O)C=C2C1=CC=C1[C@@]2(C)CC[C@@]2(C)[C@@H]3C[C@](C)(C(=O)O)CC[C@]3(C)CC[C@]12C [CELASTROL] | demonstrate PAI-1 inhibitor activity | –
29 | NCC1CCC(C(=O)Oc2ccc(CCC(=O)O)cc2)CC1 (stereo not shown) [CETRAXATE HCl] | demonstrate PAI-1 inhibitor activity | –
30 | CCN(CC)CCOc1ccc(C(=C(Cl)c2ccccc2)c2ccccc2)cc1 [CLOMIPHENE CITRATE] | demonstrate PAI-1 inhibitor activity | –
31 | Cc1nc(C)c(Cl)c(O)c1Cl [CLOPIDOL] | demonstrate PAI-1 inhibitor activity | –
32 | COc1ccccc1/C=C\C(=O)O [COUMARINIC ACID METHYL ETHER] | demonstrate PAI-1 inhibitor activity | –
33 | COc1ccc2c(=O)c(-c3cc4c(cc3OC)OCO4)coc2c1 [CUNEATIN METHYL ETHER] | demonstrate PAI-1 inhibitor activity | –
34 | COc1ccccc1OCCNCC(O)COc1cccc2[nH]c3ccccc3c12 (stereo not shown) [Carvedilol] | demonstrate PAI-1 inhibitor activity | –
35 | CCN(CC)C(=O)N1CCN(C)CC1 [DIETHYLCARBAMAZINE CITRATE] | demonstrate PAI-1 inhibitor activity | –
36 | CC(C)=CCCC1(C)C=Cc2c(O)c3c(c(CC=C(C)C)c2O1)OC12C(=CC4CC1C(C)(C)OC2(C/C=C(/C)C(=O)O)C4O)C3=O (stereo not shown) [DIHYD[…]] | demonstrate PAI-1 inhibitor activity | –
37 | COc1c(Cl)c(C)c2c(c1Cl)OC(=O)c1c(C)c(Cl)c(O)c(Cl)c1O2 [DIPLOICIN] | demonstrate PAI-1 inhibitor activity | –
38 | CC(=O)Oc1cccc(C(=O)O)c1OC(C)=O [DIPYROCETYL] | demonstrate PAI-1 inhibitor activity | –
39 | Cl.NCCc1ccc(O)c(O)c1 [DOPAMINE HYDROCHLORIDE] | – | demonstrate PAI-1 inhibitor activity
40 | CCN(CC)CCOC(=O)C(c1ccccc1)C1CCCCC1 (stereo not shown) [DROFENINE HYDROCHLORIDE] | demonstrate PAI-1 inhibitor activity | –
